{"source": "patent US8580493B2", "about": "“Screening for compounds that modulate GPR3-mediated beta-arrestin signaling and amyloid beta peptide generation” (VIB VZW, priority 2009, dated 2013)", "key": {"[1]": {"test_system": "β-arrestin 2 recruitment to GPR3", "test": "PathHunter β-arrestin assay after siRNA transfection of the CHO GPR3 β-arrestin 2 cell line", "type": "cell-based, Chinese hamster", "details": "PathHunter CHO GPR3 β-arrestin 2 cells, 20 μg siRNA, FIG. 5", "text": "A modified β-galactosidase complementation assay, referred to as PathHunter™ technology, is another preferred assay method (Olson and Eglen 2007). The principle of the assay is the detection of an interaction between GPR3 and β-arrestin following receptor activation. The assay is unique because it provides a direct measure of β-arrestin binding, whereas imaging assays detect the movement of β-arrestin. […] The assay makes use of a low affinity peptide derived from the amino-terminus of Escherichia coli β-galactosidase, which is tethered to the carboxy-terminus of GPR3 (ProLink™ tag), and a w-deletion mutant of β-galactosidase, which is fused to β-arrestin (enzyme acceptor or EA). The use of the low-affinity ProLink™ peptide ensures that the enzyme fragment complementation (EFC) reaction is driven by the receptor-stimulated, reversible interaction of GPR3 with β-arrestin and not by β-galactosidase complementation in the absence of receptor stimulation. Thus, complementation between β-arrestin and GPR3 results in the formation of a functional enzyme that is capable of hydrolyzing a substrate and generating a chemiluminescent signal. Given the finding that β-arrestin modulates Aβ release, the PathHunter™ β-arrestin assay would facilitate the identification of potential allosteric modulators of Aβ generation. […]"}, "[2]": {"test_system": "Aβ generation in CHO/β-arrestin 2/GPR3 cells", "test": "Aβ1-40 and Aβ1-42 ELISA of culture supernatants after siRNA transfection of CHO/β-arrestin 2/GPR3 cells", "type": "cell-based, Chinese hamster", "details": "20 μg siRNA, FIG. 6", "text": "Chemically synthesized, double-stranded siRNAs targeting β-arrestin 1 or 2 with 19-nucleotide duplex RNA and 2-nucleotide 3′-dTdT overhangs containing fluorescent tags to determine transfection efficiency were purchased from Qiagen. The sequences of the siRNA have been previously described (Aim et al. 2003; 2004; see also Table 1). As a control, non-silencing siRNA with the sequence 5′-[…]-3′ (SEQ ID NO:10) was used in the experiment. The PathHunter™ Chinese hamster ovary (CHO) GPR3 β-arrestin 2 cell line, which stably expresses GPR3 and β-arrestin 2, was transfected with 20 μg of siRNA using the GeneSilencer Transfection reagent (Genlantis) as previously described by Aim et al. (2003). Forty-eight hours following transfection, cells were divided into six-well and 96-well plates for further experiments. Twenty-four hours after plating, cells were placed in serum-free medium for an additional 24 hours. The PathHunter™ β-arrestin assay was performed on the cells in the 96-well plate to determine the extent of β-arrestin 2 recruitment to GPR3 following a reduction in the expression of β-arrestin 1 or β-arrestin 2.\nCulture supernatant samples were collected from cells seeded in the six-well plates to determine the effect of a reduction in β-arrestin 2 recruitment to GPR3 on Aβ1-40 and Aβ1-42 generation. […]"}, "[3]": {"test_system": "Aβ generation in HEK293 APP695 cells", "test": "Aβ1-40 and Aβ1-42 ELISA of culture supernatants after siRNA transfection of HEK293 APP695 cells", "type": "cell-based", "details": "HEK293 APP695 cells co-transfected with human GPR3 plasmid, 20 μg siRNA", "text": "FIGS. 1A and 1B: Effect of siRNA-mediated β-arrestin depletion on Aβ1-40 (FIG. 1A) and Aβ1-42 (FIG. 1B) generation in HEK293 APP695 cells. Cells were transfected with pcDNA or GPR3, and siRNA targeting β-arrestin 1, 2, both, or a non-silencing (control) RNA duplex prior to measurement of Aβ1-40 (FIG. 1A) and Aβ1-42 (FIG. 1B) secretion in cell culture supernatants by ELISA. The results are expressed as the mean percentage ±SD of three independent experiments performed in duplicate relative to non-silencing siRNA (control).\nChemically synthesized, double-stranded siRNAs targeting β-arrestin 1 or 2 with 19-nucleotide duplex RNA and 2-nucleotide 3′-dTdT overhangs containing fluorescent tags to determine transfection efficiency were purchased from Qiagen. The sequences of the siRNA have been previously described (Ahn et al. 2003; 2004; see also Table 1). As a control, non-silencing siRNA with the sequence 5′-[…]-3′ (SEQ ID NO:10) was used in the experiment. […]\nTo directly determine the requirement of β-arrestin 1 or 2 for constitutive and GPR3-mediated Aβ generation, Aβ levels were measured in HEK293 APP695 cells following transfection with siRNA that specifically targets either β-arrestin 1 or 2 or both. β-arrestin 2 siRNA reduced constitutive Aβ1-40 and Aβ1-42 generation. […]"}}, "data": [{"substance": "5′-AAAGCCUUCUGCGCGGAGAAU-3′ [β-arrestin 1 siRNA]", "values": [{"measurement": "β-arrestin 2 recruitment to GPR3 (chemiluminescent signal)", "setting": "[1]", "result": "clear increase"}, {"measurement": "Aβ1-40 generation", "setting": "[2]", "result": "did not affect"}, {"measurement": "Aβ1-42 generation", "setting": "[2]", "result": "modestly stimulated"}, {"measurement": "Aβ1-40 generation with GPR3 co-transfection", "setting": "[3]; FIG. 1A", "result": "further reduction"}, {"measurement": "Aβ1-42 generation with GPR3 co-transfection", "setting": "[3]; FIG. 1B", "result": "further reduction"}]}]}
